Series [1] can be described thus: Pharmacokinetic test in male SD rats, intravenous and intragastric administration, plasma LC-MS/MS. It counts as in vivo. As to conditions: rat; for Vd: read-out: Apparent volume of distribution Vdss; for clearance: read-out: Clearance rate Cl; for AUC(0-inf): read-out: Curve area (0-inf) AUC0-inf; for AUC(0-t): read-out: Curve area (0-t) AUC0-last; for half-life: read-out: Half-life T1/2 (converted); for bioavailability: oral, intragastric vs intravenous administration, read-out: Bioavailability F; for Cmax: read-out: Blood drug concentration Cmax; for Tmax: read-out: Peak time Tmax. An excerpt:
Experimental Embodiment 2: Pharmacokinetic Test of the Compounds of the Present Disclosure
Male SD rats were used as test animals, and LC-MS/MS method was used to determine the drug concentrations in plasma of rats at different time after intravenous and intragastric administration of compound 1A, compound 3A and compound 8A. To study the pharmacokinetic behavior of the compounds in rats and to evaluate their pharmacokinetic characteristics.
2.1 Test Drugs: Compound 1A, Compound 3A and Compound 8A
2.2 Test animals: 12 healthy adult male SD rats, divided into 6 groups with 2 rats in each group. The animal was purchased from Shanghai Sippr-BK laboratory animal Co. Ltd., and the animal production license number was SOCK (Shanghai) 2013-0016.
An appropriate amount of sample was weighed, and appropriate amounts of DMSO, polyethylene glycol-15 hydroxystearate and water were added in turn according to the volume ratio of 10:10:80, and the clarified state of 0.2 mg/mL was reached after stirring and sonication for intravenous administration.
An appropriate amount of sample was weighed and dissolved in 5% Tween 80+90% polyethylene glycol 400+5% polyvinylpyrrolidone K30 solution, and the clarified state of 0.5 mg/mL was reached after stirring and sonication for intragastric administration.
12 male SD rats were divided into 6 groups, and after fasting overnight, groups 1-3 were administered intravenously with a volume of 5 mL/kg; groups 4-6 were administered by gavage with a volume of 10 mL/kg.
After compound 1A, compound 3A and compound 8A were intravenously administered to SD rats, 40 μL of blood was collected at 0.0833, 0.25, 0.5, 1, 2, 4, 8 and 24 hours, respectively, and placed in a test tube containing 2 μL of EDTA-K2. After compound 1A and compound 3A were administered by gavage, 40 μL of blood was collected at 0.25, 0.5, 1, 2, 4, 8 and 24 hours, respectively, and placed in a test tube containing 2 μL of EDTA-K2. The tubes were centrifuged at 4000 rpm for 15 minutes to separate the plasma and stored at −60° C. Animals were allowed to eat 2 hours after administration.
The content of the test compounds in the plasma of rats after intravenous and intragastric administration was determined by LC-MS/MS method. The linear range of the method was 2.00-6000 nmol/L; plasma samples were analyzed after acetonitrile precipitation protein treatment.

The target of series [2] is T1, androgen receptor (AR) (Homo sapiens, UniProt P10275).
T1 sequence (P10275 1-920): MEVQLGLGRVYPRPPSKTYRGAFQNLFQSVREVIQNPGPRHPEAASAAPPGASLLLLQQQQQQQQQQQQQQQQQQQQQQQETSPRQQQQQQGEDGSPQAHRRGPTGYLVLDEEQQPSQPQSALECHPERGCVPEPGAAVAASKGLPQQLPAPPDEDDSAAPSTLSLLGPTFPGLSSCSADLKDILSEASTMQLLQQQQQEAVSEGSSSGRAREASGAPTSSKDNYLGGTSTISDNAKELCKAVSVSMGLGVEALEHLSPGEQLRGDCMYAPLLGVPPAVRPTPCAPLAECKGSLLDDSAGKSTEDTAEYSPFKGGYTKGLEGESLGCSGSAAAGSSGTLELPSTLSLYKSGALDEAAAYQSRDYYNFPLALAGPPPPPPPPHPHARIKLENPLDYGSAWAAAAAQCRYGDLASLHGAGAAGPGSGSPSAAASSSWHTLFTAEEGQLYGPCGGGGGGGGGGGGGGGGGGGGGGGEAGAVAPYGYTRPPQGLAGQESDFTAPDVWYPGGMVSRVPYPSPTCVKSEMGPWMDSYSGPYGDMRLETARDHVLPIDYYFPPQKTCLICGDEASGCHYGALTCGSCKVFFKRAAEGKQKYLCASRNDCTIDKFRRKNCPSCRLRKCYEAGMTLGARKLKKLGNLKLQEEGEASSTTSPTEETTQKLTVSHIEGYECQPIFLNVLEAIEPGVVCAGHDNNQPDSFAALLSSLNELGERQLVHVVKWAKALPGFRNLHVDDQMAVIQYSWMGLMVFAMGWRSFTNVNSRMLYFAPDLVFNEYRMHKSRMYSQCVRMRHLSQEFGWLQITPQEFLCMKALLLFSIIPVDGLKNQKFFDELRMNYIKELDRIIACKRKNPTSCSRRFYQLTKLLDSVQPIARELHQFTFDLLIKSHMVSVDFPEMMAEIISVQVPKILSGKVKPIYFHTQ
Kind of series: Agonistic effect of test compounds on androgen receptor (AR), LiveBLAzer FRET reporter cell assay. It counts as cell-based. On the procedure: Experimental Embodiment 1: Agonistic Effect of Test Compounds on Androgen Receptor (AR)
1. Preparation of Compounds, Placing in Plates:
1.1 Preparation of compounds: the test compounds were diluted to the working concentration, and each compound was diluted by 4 times with Echo for 10 concentration gradients, and the compounds were added to a 384-well cell plate according to the microplate layout diagram, with 200 nL per well;
1.2 AR cell assay medium: 87% Opti-MEM (reduced serum medium), 10% Dialyzed FBS (dialyzed fetal bovine serum), 1% NEAA (non-essential amino acids), 1% sodium pyruvate and 1% penicillin-streptomycin;
1.3 culture medium, trypsin and Dulbecco's phosphate buffer were preheated in a 37° C. water bath;
1.4 the original medium in the cell culture flask was removed, and the cells were washed once with 6 mL of Dulbecco's phosphate buffer;
1.5 3.5 mL of trypsin was added to the cell culture flask, and the flask was gently shaken to make the trypsin fully contact with the cells, the trypsin was removed; after aspirating the trypsin, the culture flask was placed in a 37° C. incubator containing 5% CO2 for about 1 minute;
1.6 the cells were resuspended with 10 mL of cell detection medium, and about 0.8 mL of cell suspension was taken out for counting (ViCell XR)
1.7 the cell suspension was diluted with culture medium to 2.5×10^5 cells per mL;
1.8 40 !IL of cell suspension was added to each well of the cell plate, and 40 μL of cell culture medium was added to the other wells, and the cells were incubated in a 37° C. incubator containing 5% CO2 for 16 hours.
2. Reading the Board and Analyzing Data:
2.1 Preparation of solution A: 182 μL of DMSO was added to 200 μg of LiveBLAzer™-FRET B/G/g substrate (CCF4-AM). The solution A was packaged and stored in a refrigerator at −20° C.;
2.2 preparation of 6×substrate buffer: 15 μL of solution A was added to 150 μL of solution B, and the mixture was vortexed evenly, then 2335 μL of solution C was added to the above solution and vortexed evenly;
2.3 the cell culture plate was taken out, and 8μL of 6×substrate buffer was added to each well, shaken for 1 minute, and centrifuged at 1000 rpm for 10 seconds; after sealing the membrane, the cells were incubated at 23° C. for 2 hours, and the plate was read with Envision, and the curve EC50 value was fitted by Prism software.

The mark [3] stands for this setting: intravenous administration, dose 1.1 (1A), 0.69 (3A), 0.716 (8A) mg/kg.
Setting [4] is: po, intragastric administration, dose 4.92 (1A), 4.2 (3A), 4.59 (8A) mg/kg.
[5] abbreviates: AR cells, 16 hours incubation, 10 concentrations, read-out: EC50, agonist activity on androgen receptor.

The clearance is a measure of how efficiently the substance is removed, as volume per time. By bioavailability is commonly meant the share of a dose that reaches the circulation, judged against a reference dose that is usually intravenous. A word on the Tmax: it is the time from dosing to the highest level. The EC50 is the midpoint of the concentration-response curve.

Where two headings read alike, the source gives them in different places.

Regarding `N#Cc1ccc(N2CC3CC3C2C(O)C(F)(F)F)cc1C(F)(F)F` (single isomer, unassigned) [Compound 1A], in series [1] (setting [3]), the Vd is 1.43 L/kg, the clearance was 20.6 mL/min/kg, the AUC(0-inf) came out at 2.5 µM·h and the AUC(0-t) stood at 2.47 µM·h. Moreover, in series [1] (setting [3]), the half-life was 1.37 h. Also, the bioavailability in series [1] was found to be 11%. In series [1] (setting [4]), the Cmax came to 223 nM, the AUC(0-t) was 1.24 µM·h and the Tmax came out at 4 h. The compound further returned an EC50 in series [2] of 0.81 nM.

In turn, `N#Cc1c(F)cc(N2CC3CC3C2C(O)C(F)(F)F)cc1Cl` (single isomer, unassigned) [Compound 5A] returned an EC50 in series [2] of 0.37 nM.

The compound `N#Cc1c(F)cc(N2CC3CC3C2C(O)C(F)(F)F)cc1C(F)(F)F` (single isomer, unassigned) [Compound 7A] gave an EC50 in series [2] of 0.53 nM.

With `N#Cc1ncc(N2CC3CC3C2C(O)C(F)(F)F)cc1C(F)(F)F` (single isomer, unassigned) [Compound 8A], in series [1] (setting [3]), the Vd was determined as 2.22 L/kg, the clearance is 6.99 mL/min/kg, the AUC(0-inf) stood at 4.87 µM·h and the AUC(0-t) was found to be 4.78 µM·h. In series [1] (setting [3]), the half-life was 4.18 h. Also, in series [1], the bioavailability came out at 41%. Besides, in series [1] (setting [4]), the Cmax came out at 1660 nM, the AUC(0-inf) was 12.9 µM·h, the AUC(0-t) came out at 12.7 µM·h and the half-life was 3.69 h. Further, the time to peak (Tmax) in series [1] (setting [4]) is 4 h. Also, in series [2] (setting [5]), the EC50 is 3.25 nM.

Take `N#Cc1ncc(N2CC3CC3C2C(O)C(F)(F)F)cc1OC(F)F` (single isomer, unassigned) [Compound 9A]: the EC50 in series [2] (setting [5]) worked out at 47.8 nM.

As for `N#Cc1ncc(N2CC3CC3C2C(O)C(F)(F)F)cc1Cl` (single isomer, unassigned) [Compound 10A], the half-maximal effective concentration (EC50) in series [2] (setting [5]) came out at 55.8 nM.

Turning to `COc1cc(N2CC3CC3C2C(O)C(F)(F)F)cnc1C#N` (single isomer, unassigned) [Compound 11A], in series [2] (setting [5]), the EC50 is 135 nM.

For the compound `N#Cc1ccc(N2C[C@@H]3COC[C@@H]3[C@H]2C(O)C(F)(F)F)cc1C(F)(F)F` (single isomer, unassigned) [Compound 14A], in series [2], the EC50 was found to be 0.39 nM.

With `N#Cc1ccc(N2CC3CC3C2C(O)C(F)(F)F)cc1C(F)F` (stereo not shown) [Mixture of compounds 2A and 2B], the midpoint of the response in series [2], the EC50, lay at 8.8 nM.

As for `N#Cc1cc(N2CC3CC3C2C(O)C(F)(F)F)cc(F)c1C#N` (stereo not shown) [Mixture of compounds 6A and 6B], in series [2] (setting [5]), the EC50 is 4.3 nM.

Take `N#Cc1ncc(N2CC3C(C2C(O)C(F)(F)F)C3(F)F)cc1C(F)(F)F` (stereo not shown) [Mixture of compounds 12A and 12B]: the EC50 in series [2] (setting [5]) was 6.33 nM.
